Here are results for three molecules from US20050085432A1, “Methods of using conjugates of saccharides and acetamidino or guanidino compounds for treating bacterial infections” (priority 2001, published 2005).

For data set [1], the system named is E. coli RNase P. Description: RNase P activity assay (ptRNA processing), in-vitro reconstituted E. coli RNase P. In kind it is biochemical. Conditions: for inhibition of RNase P processing activity: radiolabeled ptRNA Tyr su3+ substrate, FIG. 3; for effect of poly A RNA on ability to inhibit E. coli RNase P: as much as 1 μM poly A RNA added; for IC50: initial reaction velocities at increasing inhibitor concentrations, FIG. 4a-b, read-out: IC50, inhibition of E. coli RNase P activity. Here is the method:
RNase P from E. coli was prepared and purified according to Vioque, A. et al. (1988) J. Mol. Biol. 202:835-848 and Gopalan, V. (1997) J. Mol. Biol. 267:818-829.
ptRNA^Tyrsu3+ was prepared by in vitro transcription of FokI-digested pUC19TyrT [Vioque, A. et al. (1988) J. Mol. Biol. 202:835-848].
RNase P activity was determined in the presence or absence of AAC inhibitors suspended in 50 mM Tris-Hcl (7.2), 5 % (w/v) polyethylene glycol 8000, 1 mM NH4Cl, 10 mM spermidine, 10 mM MgCl2. Reactions were carried under multiple-tumover conditions (for example, 100 nM of radio-labeled ptRNA^Tyrsu3+ and 0.5 nM E. coli RNase P holoenzyme).
Following holoenzyme assembly, AAC inhibitors were added to the reaction mixture and incubated for 5 minutes prior to the addition of [^32P]-ptRNA^Tyrsu3+ substrate. Reactions were allowed to proceed for the indicated times and were terminated by adding a quenching dye [7 M Urea, 10 mM EDTA, 10% (v/v) phenol]. Reaction products were resolved by gel electrophoresis (8% polyacrylamide/7 M Urea) and auto-radiograms were obtained.
(§1) Extent of substrate cleavage was quantified using a PhosphorImager (Molecular Dynamics) and ImageQuant softwares.

Data set [2] relates to RNase P derived from N. gonnorhoeae. Description: RNase P activity assay (ptRNA processing), reconstituted N. gonnorhoeae RNase P. In kind it is biochemical, Neisseria gonnorhoeae. The following applies: FIG. 3. The protocol:
(§2) Polynucleotide sequences of Neisseria gonnorhoeae, Porphyromonas gingivalis and Streptococcus pneumoniae (SEQ ID NOS: 1, 3 and 5, respectively) expressing amino acid (SEQ ID NOS: 2, 4 and 6, respectively) subunits of RNase P were PCR amplified using standard PCR methodology. The genes encoding the RNA subunit of RNase P were cloned into pUC19 under the transcriptional control of a T7 RNA polymerase promoter. T7 RNA polymerase-mediated run-off in vitro transcription was performed on individual clones to generate the respective RNase P RNAs, which were then purified using Quick Spin columns. cDNAs encoding the protein subunits of the various bacterial species were subcloned into either expression vectors: pCRT7TOPO or pBAD (Invitrogen, Carlsbad, Calif.). Proteins were over-expressed in E. coli as His6-tagged fusion proteins and purified to homogeneity using a combination of cation exchange and immobilized metal affinity chromatography.
(§3) RNase P activity was determined in the presence or absence of AAC inhibitors suspended in 50 mM Tris-Hcl (7.2), 5 % (w/v) polyethylene glycol 8000, 1 mM NH4Cl, 10 mM spermidine, 10 mM MgCl2. Reactions were carried under multiple-tumover conditions (for example, 100 nM of radio-labeled ptRNA^Tyrsu3+ and 0.5 nM E. coli RNase P holoenzyme). […]
as §1

In data set [3] the test system is RNase P derived from S. pneumoniae. Description: RNase P activity assay (ptRNA processing), reconstituted S. pneumoniae RNase P. In kind it is biochemical, Streptococcus pneumoniae. Conditions: FIG. 3. The protocol: as §2, §3, §1
For data set [4], the system named is RNase P derived from P. gingivalis. Description: RNase P activity assay (ptRNA processing), reconstituted P. gingivalis RNase P. The following applies: FIG. 3. In kind it is biochemical, Porphyromonas gingivalis. The protocol: as §2, §3, §1
Chain of RNase P derived from P. gingivalis (as listed by the source): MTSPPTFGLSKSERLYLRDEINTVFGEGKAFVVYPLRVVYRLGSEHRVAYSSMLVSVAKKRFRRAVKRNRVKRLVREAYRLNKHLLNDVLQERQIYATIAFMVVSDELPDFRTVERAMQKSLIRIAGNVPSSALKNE
In data set [5] the test system is human RNase P. Description: Activity of partially purified human RNase P (ptRNA processing). The following applies: FIG. 5; for inhibition of human RNase P: 7.5 μM; for effect on human RNase P activity: concentrations 10-fold greater than the IC50 values for E. coli RNase P. Format: biochemical. The protocol:
In order to determine if the AAC inhibitors of the present invention cross-react with human RNase P, the activity of a partially purified human enzyme was tested in the absence or presence of various concentrations of NeoR and […].

Data set [6] concerns the target various bacterial RNase P. Description: RNase P activity assay, various bacterial RNase P. Format: biochemical. The following applies: concentration range. Here is the method: as §2, §3, §1
The conditions of data set [7]: two single doses of 25 mg/kg body weight for the duration of two hours; cited from earlier work.
Data set [8] concerns RNP complex formed between HIV TAR RNA and Tat-derived peptide. Conditions: 10-fold excess of tRNA; cited from earlier work.

On to `N=C(N)NCCC[C@H](N)C(=O)O` [L-Arginine, reference compound], for which the “inhibition of RNase P specific activity” value in data set [1] (10-fold excess concentration over the ptRNA substrate, FIG. 6) is given as “did not inhibit”.

With hexa-argininamido-neomycin B [NeoR], the “inhibition of RNase P processing activity” value in data set [1] (500 nM NeoR), in data set [2] (500 nM NeoR) and in data set [3] (500 nM NeoR) was “nearly complete inhibition” in each case. Also, the “effect of poly A RNA on ability to inhibit E. coli RNase P” value in data set [1] (FIG. 6) was “failed to alter”. Also, the IC50 in data set [1] came to 125 nM. Moreover, the “IC50 fold lower than that of the parental aminoglycoside” value in data set [1] (versus literature value of parental aminoglycoside (Mikkelsen 1999)) turned out to be 100 fold. In data set [4] (500 nM NeoR), the “susceptibility of RNase P activity to the inhibitor” value is “less susceptible”. Besides, in data set [5], the “inhibition of human RNase P” value is recorded as “nearly complete inhibition”. In data set [5], the “effect on human RNase P activity” value is given as “largely unaffected”. In data set [6], the “IC50 for inhibition of various bacterial RNase P” value is listed as “sub-micromolar”. Further, the toxicity to mice result in data set [7] is recorded as “not toxic”.

Turning to triargininamido-gentamycin C [R3G], the “inhibition of RNase P processing activity” value in data set [1] (1500 nM R3G), in data set [2] (1500 nM R3G) and in data set [3] (1500 nM R3G) was “nearly complete inhibition” throughout. For the same molecule, the “effect of poly A RNA on ability to inhibit E. coli RNase P” value in data set [1] (FIG. 6) is recorded as “failed to alter”. In data set [1], the 50% inhibitory concentration (IC50) came out at 300 nM. Further, in data set [4] (1500 nM R3G), the “susceptibility of RNase P activity to the inhibitor” value is “less susceptible”. The “inhibition of human RNase P” value in data set [5] is listed as “nearly complete inhibition”. For the same molecule, in data set [5], the “effect on human RNase P activity” value was “largely unaffected”. The “IC50 for inhibition of various bacterial RNase P” value in data set [6] is given as “sub-micromolar”. For the same molecule, the “effect of tRNA on ability to disrupt the TAR RNA/Tat-derived peptide complex” value in data set [8] is reported as “no effect”.
